This is an account of results in patent publication US12559733B2, “Optimization of type IV BRAF inhibitors for the treatment of melanoma” (UNIVERSITY OF SOUTH CAROLINA, priority 2020, dated 2026).

Where a SMILES comes first, the peptide text is derived from it. Bridges are numbered along the chain shown (N, C = ends). Where no end group is shown, it is not given here. [ ]: non-standard residue; d: D form. The star is where a group is joined. NMeR = CN[C@@H](CCCNC(=N)N)C(=O)O; X1 = CC(C)CCOc1ccc(CCN*)cc1; Orn = NCCC[C@H](N)C(=O)O; Bz = O=C(c1ccccc1)*

The first data set deals with T1, B-Raf (Homo sapiens, UniProt P15056). Nature of the data set: Dissociation constant (Kd) determination from intrinsic Trp fluorescence (ITF). It counts as binding.
T1 sequence (P15056 whole entry): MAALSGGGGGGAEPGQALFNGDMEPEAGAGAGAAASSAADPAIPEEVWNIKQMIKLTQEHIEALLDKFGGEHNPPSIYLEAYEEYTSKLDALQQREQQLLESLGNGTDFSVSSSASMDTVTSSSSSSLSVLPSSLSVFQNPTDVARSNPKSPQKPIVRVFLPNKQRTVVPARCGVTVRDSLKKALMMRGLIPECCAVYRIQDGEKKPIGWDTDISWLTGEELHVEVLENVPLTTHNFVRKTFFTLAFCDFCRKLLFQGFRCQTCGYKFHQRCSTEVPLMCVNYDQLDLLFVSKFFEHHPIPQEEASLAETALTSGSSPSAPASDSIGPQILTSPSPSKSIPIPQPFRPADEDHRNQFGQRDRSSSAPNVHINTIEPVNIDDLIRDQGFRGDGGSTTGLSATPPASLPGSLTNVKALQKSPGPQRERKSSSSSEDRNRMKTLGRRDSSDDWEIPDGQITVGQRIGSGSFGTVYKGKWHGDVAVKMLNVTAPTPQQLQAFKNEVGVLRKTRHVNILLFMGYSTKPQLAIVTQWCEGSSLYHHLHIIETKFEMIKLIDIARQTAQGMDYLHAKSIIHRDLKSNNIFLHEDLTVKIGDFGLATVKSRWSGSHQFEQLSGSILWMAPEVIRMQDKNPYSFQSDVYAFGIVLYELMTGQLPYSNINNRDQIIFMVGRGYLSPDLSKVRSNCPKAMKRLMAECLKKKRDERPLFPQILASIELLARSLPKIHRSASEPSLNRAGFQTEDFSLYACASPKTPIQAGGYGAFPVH
Settings: not given
Usually Kd stands for the equilibrium constant for the complex coming apart. As to `CSCC[C@H](NC(=O)[C@H](Cc1ccccc1)NC(=O)[C@H](CC(C)C)NC(=O)[C@H](CC(C)C)NC(=O)[C@@H]1CCC(=O)NCCCC[C@H](N)C(=O)N[C@@H](CCCNC(=N)N)C(=O)N[C@@H](Cc2c[nH]cn2)C(=O)N[C@@H](C(C)C)C(=O)N[C@@H](C)C(=O)N1)C(=O)NCC(N)=O` [compound 47] (H-KRHVAELLFMG-NH2; lactam 1-6), the Kd was determined as 590 ± 20 nM. Same read-out and setting: the value for `CC(C)[C@@H]1NC(=O)[C@H](Cc2c[nH]cn2)NC(=O)[C@H](CCCNC(=N)N)NC(=O)[C@@H](N)CCCCNC(=O)CC[C@@H](C(N)=O)NC(=O)[C@H](C)NC1=O` [compound 48] (H-KRHVAE-NH2; lactam 1-6) was 300 ± 30 nM. On the same count and under the same terms, the value for `CSCC[C@H](NC(=O)[C@H](Cc1ccccc1)NC(=O)[C@H](CC(C)C)NC(=O)[C@H](CC(C)C)NC(=O)[C@@H]1CCC(=O)NCCCC[C@H](NC(=O)[C@H](CCCCN)NC(=O)[C@H](CCCNC(=N)N)NC(=O)[C@H](CC(C)C)NC(=O)[C@@H](N)C(C)C)C(=O)N[C@@H](CCCNC(=N)N)C(=O)N[C@@H](Cc2c[nH]cn2)C(=O)N[C@@H](C(C)C)C(=O)N[C@@H](CC(N)=O)C(=O)N1)C(=O)NCC(N)=O` [compound 53] was 1890 ± 330 nM; that for `CSCC[C@H](NC(=O)[C@H](Cc1ccccc1)NC(=O)[C@H](CCC(C)C)NC(=O)[C@H](CC(C)C)NC(=O)[C@@H]1CCC(=O)NCCC[C@H](NC(=O)[C@H](CCCCN)NC(=O)[C@H](CCCNC(=N)N)NC(=O)[C@H](CC(C)C)NC(=O)[C@@H](N)C(C)C)C(=O)N[C@@H](CCCNC(=N)N)C(=O)N[C@@H](Cc2c[nH]cn2)C(=O)N[C@@H](C(C)C)C(=O)N[C@@H](C)C(=O)N1)C(=O)NCC(N)=O` [compound 57] was 430 ± 30 nM; that for `CC[C@H](C)[C@H](NC(=O)[C@H](CC(C)C)NC(=O)[C@@H]1CCC(=O)NCCC[C@H](NC(=O)[C@H](CCCCN)NC(=O)[C@H](CCCNC(=N)N)NC(=O)[C@H](CC(C)C)NC(=O)[C@@H](N)C(C)C)C(=O)N[C@@H](CCCNC(=N)N)C(=O)N[C@@H](Cc2c[nH]cn2)C(=O)N[C@@H](C(C)C)C(=O)N[C@@H](C)C(=O)N1)C(=O)N[C@@H](Cc1ccccc1)C(=O)N[C@@H](CCSC)C(=O)NCC(N)=O` [compound 58] (H-VLRK[Orn]RHVAELIFMG-NH2; lactam 5-10; N-terminus assumed) was 170 ± 60 nM. As for `CSCC[C@H](NC(=O)[C@H](Cc1ccccc1)NC(=O)[C@H](CC(C)C)NC(=O)[C@H](CC(C)C)NC(=O)[C@@H]1CCC(=O)NCCCC[C@H](NC(=O)[C@H](CCCCN)NC(=O)[C@H](CCCNC(=N)N)NC(=O)[C@H](CC(C)C)NC(=O)[C@@H](N)C(C)C)C(=O)N[C@@H](CCCNC(=N)N)C(=O)N[C@@H](Cc2c[nH]cn2)C(=O)N[C@@H](C(C)C)C(=O)N[C@@H](C)C(=O)N1)C(=O)NCC(N)=O` [compound 59], binding was characterised by a dissociation constant (Kd) of 61 ± 10 nM.

`CSCC[C@H](NC(=O)[C@H](Cc1ccccc1)NC(=O)[C@H](CC(C)C)NC(=O)[C@H](CC(C)C)NC(=O)[C@@H]1CCC(=O)NCCCC[C@H](NC(=O)[C@H](CCCCN)NC(=O)[C@H](CCCNC(=N)N)NC(=O)[C@H](CC(C)C)NC(=O)[C@@H](N)C(C)C)C(=O)N(C)[C@@H](CCCNC(=N)N)C(=O)N[C@@H](Cc2c[nH]cn2)C(=O)N[C@@H](C(C)C)C(=O)N[C@@H](C)C(=O)N1)C(=O)NCC(N)=O` [compound 60] showed a Kd of 39 ± 20 nM. Same read-out and setting: the value for `CSCC[C@H](NC(=O)[C@H](Cc1ccccc1)NC(=O)[C@H](CC(C)C)NC(=O)[C@H](CC(C)C)NC(=O)[C@@H]1CCC(=O)NCCCC[C@H](N)C(=O)N[C@@H](CCCNC(=N)N)C(=O)N[C@@H](Cc2c[nH]cn2)C(=O)N2CCC[C@H]2C(=O)N[C@@H](C)C(=O)N1)C(=O)NCC(N)=O` [compound 61] (H-KRHPAELLFMG-NH2; lactam 1-6) was 160 ± 20 nM.

The data set is the same for the next values; noted with them: FIG. 1, unit not given.
GVLRKTHHVNILGFWGYST [SEQ ID NO: 2]: the “Kd, binding affinity to the dimer forming interface of B-Raf” value is “no measurable binding”. The same measure, in the same setting: then GVLRKTRFVNILLFMGYST [SEQ ID NO: 9], with “no measurable binding”; and GVLRKTRHVNILLDMGYST [SEQ ID NO:14], with “no measurable binding”.

The same data set, now with this note: Table 2, binding affinity with BRAF, cyclized vs linear peptides; read-out: Kd.
On to VLRKTRHVNILLFM [compound 16], for which the Kd worked out at 5750 ± 1200 nM.

In the next data set the target is T1, B-Raf. The data set can be described thus: Isothermal Titration Calorimetry (ITC) of B-Raf binding of peptides. To be noted: change in enthalpy.
Excerpt: Isothermal Titration Calorimetry (ITC) of B-Raf Binding of Peptides
An isothermal titration calorimeter composed of two identical cells surrounded by an adiabatic jacket was used to perform ITC measurements. The thermopile/thermocouple circuits were used to detect temperature differences between a reference cell (filled with buffer or water) and a sample cell containing the macromolecule. During an experiment, ligand is titrated into the sample cell in precisely known aliquots, causing heat to be either taken up or evolved (depending on the nature of the reaction). Measurements consist of the time-dependent input of power required to maintain equal temperatures between the sample and reference cells. In an exothermic reaction, the temperature in the sample cell increases upon addition of ligand. This causes the feedback power to the sample cell to be decreased (remember: a reference power is applied to the reference cell) in order to maintain an equal temperature between the two cells. In an endothermic reaction, the opposite occurs; the feedback circuit increases the power in order to maintain a constant temperature (isothermic/isothermal operation). […] The pattern of these heat effects as a function of the molar ratio [ligand]/[macromolecule] can then be analyzed to give the thermodynamic parameters of the interaction under study.
With `CC[C@H](C)[C@H](NC(=O)[C@H](CC(N)=O)NC(=O)[C@@H](NC(=O)[C@H](Cc1c[nH]cn1)NC(=O)[C@H](CCCNC(=N)N)NC(=O)[C@H](C)NC(=O)[C@H](CCCCN)NC(=O)[C@H](CCCNC(=N)N)NC(=O)[C@H](CC(C)C)NC(=O)[C@@H](NC(=O)CN)C(C)C)C(C)C)C(=O)N[C@@H](CC(C)C)C(=O)N[C@@H](CC(C)C)C(=O)N[C@@H](Cc1ccccc1)C(=O)N[C@@H](CCSC)C(=O)NCC(=O)N[C@@H](Cc1ccc(O)cc1)C(=O)N[C@@H](CO)C(=O)N[C@H](C(=O)O)[C@@H](C)O` [SEQ ID NO: 8], the ΔH is -34.8 kJ/mol.

Still in this data set, the particulars now being: change in entropy, text b156.
`CC[C@H](C)[C@H](NC(=O)[C@H](CC(N)=O)NC(=O)[C@@H](NC(=O)[C@H](Cc1c[nH]cn1)NC(=O)[C@H](CCCNC(=N)N)NC(=O)[C@H](C)NC(=O)[C@H](CCCCN)NC(=O)[C@H](CCCNC(=N)N)NC(=O)[C@H](CC(C)C)NC(=O)[C@@H](NC(=O)CN)C(C)C)C(C)C)C(=O)N[C@@H](CC(C)C)C(=O)N[C@@H](CC(C)C)C(=O)N[C@@H](Cc1ccccc1)C(=O)N[C@@H](CCSC)C(=O)NCC(=O)N[C@@H](Cc1ccc(O)cc1)C(=O)N[C@@H](CO)C(=O)N[C@H](C(=O)O)[C@@H](C)O` [SEQ ID NO: 8]: the ΔS was −28.4 J/mol·K.

In a further data set the target is dimer forming interface (Homo sapiens, UniProt P15056). Nature of the data set: Kd (μM).
Sequence of dimer forming interface (P15056 2-766 limits assumed): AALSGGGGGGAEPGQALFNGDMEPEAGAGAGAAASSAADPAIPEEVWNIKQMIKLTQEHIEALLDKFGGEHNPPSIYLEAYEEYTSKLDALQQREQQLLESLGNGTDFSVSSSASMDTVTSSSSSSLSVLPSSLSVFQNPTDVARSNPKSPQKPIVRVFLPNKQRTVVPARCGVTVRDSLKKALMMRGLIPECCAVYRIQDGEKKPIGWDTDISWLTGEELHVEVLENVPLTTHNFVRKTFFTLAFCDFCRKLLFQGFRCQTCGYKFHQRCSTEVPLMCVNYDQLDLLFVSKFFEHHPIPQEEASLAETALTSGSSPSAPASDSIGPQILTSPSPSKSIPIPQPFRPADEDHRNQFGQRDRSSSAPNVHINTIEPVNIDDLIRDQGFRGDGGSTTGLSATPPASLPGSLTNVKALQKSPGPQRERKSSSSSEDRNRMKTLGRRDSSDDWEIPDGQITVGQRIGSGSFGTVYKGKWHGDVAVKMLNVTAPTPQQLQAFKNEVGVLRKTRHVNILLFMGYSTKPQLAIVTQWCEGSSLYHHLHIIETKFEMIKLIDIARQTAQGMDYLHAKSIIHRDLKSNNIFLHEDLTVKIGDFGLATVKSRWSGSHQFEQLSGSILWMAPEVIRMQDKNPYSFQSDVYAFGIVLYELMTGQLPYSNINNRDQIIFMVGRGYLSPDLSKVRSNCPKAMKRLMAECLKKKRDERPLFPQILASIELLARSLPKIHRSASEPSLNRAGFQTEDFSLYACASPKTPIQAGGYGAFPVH
Settings: not given
As to `CC[C@H](C)[C@H](NC(=O)[C@H](CC(N)=O)NC(=O)[C@@H](NC(=O)[C@H](Cc1c[nH]cn1)NC(=O)[C@H](CCCNC(=N)N)NC(=O)[C@@H](NC(=O)[C@H](CCCCN)NC(=O)[C@H](CCCNC(=N)N)NC(=O)[C@H](CC(C)C)NC(=O)[C@@H](NC(C)=O)C(C)C)[C@@H](C)O)C(C)C)C(=O)N[C@@H](CC(C)C)C(=O)N[C@@H](CC(C)C)C(=O)N[C@@H](Cc1ccccc1)C(=O)N[C@@H](CCSC)C(=O)NCC(=O)O` [compound 19], the Kd was 800 ± 83 nM. On the same count and under the same terms, then LLKTRHVNILLFMG [compound 32], with 550 ± 105 nM; and LRKTRHVNILLFMG [SEQ ID NO: 31], with 190 ± 130 nM. As to VARKTRHVNILLFMG [compound 21], binding was characterised by a dissociation constant (Kd) of 450 ± 30 nM. The molecule VLAKTRHVNILLFMG [SEQ ID NO: 22] returned an equilibrium dissociation constant (Kd) of 360 ± 30 nM.

For VLRKTAHVNILLFMG [compound 24], the Kd is 2400 ± 350 nM.

The molecule VLRKTRAVNILLFMG [compound 25] returned an equilibrium dissociation constant (Kd) of 2700 ± 400 nM. Same read-out and setting: then VLRKTRHVNALLFMG [compound 27], with 2690 ± 350 nM. Take VLRKTRHVNIALFMG [compound 28]: the Kd was 1020 ± 140 nM. Same read-out and setting: the value for VLRKTRHVNILLAMG [compound 29] was 570 ± 80 nM; that for VLRKTRHVNILLFAG [compound 30] was 540 ± 150 nM.

Tested on in another data set: not listed separately
The data set can be described thus: Parallel artificial membrane permeability assay (PAMPA). The format is in vitro ADME. The settings on record: phospholipid and dodecane artificial membrane, mass spectroscopy. As to the method: A parallel artificial membrane permeability assay (PAMPA) was carried out using phospholipid and dodecane as the artificial membrane.
A general note: PAMPA measures passive passage across an artificial lipid membrane.
Consider `CC[C@H](C)[C@H](NC(=O)[C@H](CC(N)=O)NC(=O)[C@@H](NC(=O)[C@H](Cc1cnc[nH]1)NC(=O)[C@H](CCCNC(=N)N)NC(=O)[C@@H](NC(=O)[C@H](CCCCN)NC(=O)[C@H](CCCNC(=N)N)NC(=O)[C@H](CC(C)C)NC(=O)[C@@H](NC(=O)CN)C(C)C)[C@@H](C)O)C(C)C)C(=O)N[C@@H](CC(C)C)C(=O)N[C@@H](CC(C)C)C(=O)N[C@@H](Cc1ccccc1)C(=O)N[C@@H](CCSC)C(=O)NCC(=O)N[C@@H](Cc1ccc(O)cc1)C(=O)N[C@@H](CO)C(=O)N[C@H](C(=O)O)[C@@H](C)O` [SEQ ID NO: 1], for which the passive permeability entry is listed as “no detectable trace of passive permeability”.

On to `CSCC[C@H](NC(=O)[C@H](Cc1ccccc1)NC(=O)[C@H](CC(C)C)NC(=O)[C@H](CC(C)C)NC(=O)[C@@H]1CCC(=O)NCCCC[C@H](NC(=O)[C@H](CCCCN)NC(=O)[C@H](CCCNC(=N)N)NC(=O)[C@@H](N)CC(C)C)C(=O)N[C@@H](CCCNC(=N)N)C(=O)N[C@@H](Cc2c[nH]cn2)C(=O)N[C@@H](C(C)C)C(=O)N[C@@H](C)C(=O)N1)C(=O)NCC(N)=O` [compound 38], for which the passive permeability result was “no detectable trace of passive permeability”. On the same count and under the same terms, the value for `CC(C)[C@@H]1NC(=O)[C@H](Cc2c[nH]cn2)NC(=O)[C@H](CCCNC(=N)N)NC(=O)[C@@H](N)CCCCNC(=O)CC[C@@H](C(N)=O)NC(=O)[C@H](C)NC1=O` [compound 48] (H-KRHVAE-NH2; lactam 1-6) was “no detectable trace of passive permeability”; that for `CC(C)CCOc1ccc(CCNC(=O)[C@@H]2CCC(=O)NCCCC[C@H](NC(=O)c3ccccc3)C(=O)N(C)[C@@H](CCCNC(=N)N)C(=O)N[C@H](C)C(=O)N3CCC[C@H]3C(=O)N[C@@H](C)C(=O)N2)cc1` [compound 64] (Bz-K[NMeR][dA]PAE-X1; lactam 1-6) was “no detectable trace of passive permeability”.

In another data set the test system is NRASQ61K-mutant SBcl2 melanoma cells. Nature of the data set: Western blotting of MEK/ERK signalling in melanoma cells treated with peptide and PLX4032. The format is cell-based, human. To be noted: FIG. 2A, cells electroporated with peptide, 1 μM PLX4032 1 hour or DMSO.
Description: Following recovery at 37° C. for 30 minutes, the cells were treated with 1 μM PLX4032 for 1 hour or DMSO as a vehicle control. Subsequently, the cells were harvested, lysed using RIPA buffer and analyzed by Western blotting using the indicated antibodies. […] Four hours prior to harvest, the cells were treated with 1 μM vemurafenib (PLX4032), or the same volume of DMSO as vehicle control. RIPA buffer lysates were subjected to Western blotting using the indicated antibodies. Detection of Hsp90 served as a representative loading control.
NRAS^Q61K-mutant SBCl2 melanoma cells were electroporated with the BioRad Gene Pulser XCell™ in the presence of the indicated concentrations of peptide. Following recovery at 37° C. for 30 minutes, cells were treated with 1 μM PLX4032 for 1 hour or DMSO as a vehicle control. Subsequently, the cells were harvested, lysed using RIPA buffer, and analyzed by Western blotting using the indicated antibodies.
`CC[C@H](C)[C@H](NC(=O)[C@H](CC(N)=O)NC(=O)[C@@H](NC(=O)[C@H](Cc1cnc[nH]1)NC(=O)[C@H](CCCNC(=N)N)NC(=O)[C@@H](NC(=O)[C@H](CCCCN)NC(=O)[C@H](CCCNC(=N)N)NC(=O)[C@H](CC(C)C)NC(=O)[C@@H](NC(=O)CN)C(C)C)[C@@H](C)O)C(C)C)C(=O)N[C@@H](CC(C)C)C(=O)N[C@@H](CC(C)C)C(=O)N[C@@H](Cc1ccccc1)C(=O)N[C@@H](CCSC)C(=O)NCC(=O)N[C@@H](Cc1ccc(O)cc1)C(=O)N[C@@H](CO)C(=O)N[C@H](C(=O)O)[C@@H](C)O` [SEQ ID NO: 1]: the “downstream signaling of MEK and ERK (pMEK, pERK)” value is “reduce downstream signaling of MEK and ERK”.

A further data set relates to SBcl2 melanoma cell. Nature of the data set: Melanoma cell growth / colony formation. The format is cell-based, human. The settings on record: SBcl2 melanoma cells.
In the case of GVLAATAAVNALLFAGYST [SEQ ID NO: 68], the “concentration that impaired cell growth” value stood at 7.2 µM.

The data set is the same for the next values; noted with them: control vs FAM-TAT-SEQ ID NO: 17.
For GVLAATAAVNALLFAGYST [SEQ ID NO: 68], the “growth-impairing concentration relative to the test sequence” value is 4 fold.
